# Reference: PubChem BioAssay (NCI)
#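 Values below derive from 48-hour exposures of cells grown in 96-well plates, with endpoints linearly interpolated between the two concentrations bracketing the appropriate inhibition level. GI50 is the concentration that inhibits growth by half. Definition used: TGI = concentration required for complete inhibition of growth.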
# Tests used:
# Assay in all cases: growth of human tumour cells (NCI), 48 h
# 786-0 renal = system: 786-0 renal
# A498 renal = system: A498 renal
# A549 NSCLC = system: A549 NSCLC
# ACHN renal = system: ACHN renal
# BT-549 breast = system: BT-549 breast
# CAKI-1 renal = system: CAKI-1 renal
# CCRF-CEM leukemia = system: CCRF-CEM leukemia
# COLO 205 colon = system: COLO 205 colon
# DU-145 prostate = system: DU-145 prostate
# EKVX NSCLC = system: EKVX NSCLC
# HCC-2998 colon = system: HCC-2998 colon
# HCT-116 colon = system: HCT-116 colon
# HCT-15 colon = system: HCT-15 colon
# HL-60(TB) leukemia = system: HL-60(TB) leukemia
# HOP-62 NSCLC = system: HOP-62 NSCLC
# HOP-92 NSCLC = system: HOP-92 NSCLC
# HS 578T breast = system: HS 578T breast
# HT29 colon = system: HT29 colon
# IGROV1 ovarian = system: IGROV1 ovarian
# K-562 leukemia = system: K-562 leukemia
# KM12 colon = system: KM12 colon
# LOX IMVI melanoma = system: LOX IMVI melanoma
# M14 melanoma = system: M14 melanoma
# MALME-3M melanoma = system: MALME-3M melanoma
# MCF7 breast = system: MCF7 breast
# MDA-MB-231 breast = system: MDA-MB-231 breast
# MDA-MB-435 = system: MDA-MB-435
# MOLT-4 leukemia = system: MOLT-4 leukemia
# NCI-H226 lung = system: NCI-H226 lung
# NCI-H23 lung = system: NCI-H23 lung
# NCI-H460 lung = system: NCI-H460 lung
# NCI-H522 lung = system: NCI-H522 lung
# NCI/ADR-RES ovarian = system: NCI/ADR-RES ovarian
# OVCAR-3 ovarian = system: OVCAR-3 ovarian
# OVCAR-4 ovarian = system: OVCAR-4 ovarian
# OVCAR-5 ovarian = system: OVCAR-5 ovarian
# OVCAR-8 ovarian = system: OVCAR-8 ovarian
# PC-3 prostate = system: PC-3 prostate
# RPMI-8226 leukemia = system: RPMI-8226 leukemia
# RXF 393 renal = system: RXF 393 renal
# SF-268 CNS = system: SF-268 CNS
# SF-295 CNS = system: SF-295 CNS
# SF-539 CNS = system: SF-539 CNS
# SK-MEL-2 melanoma = system: SK-MEL-2 melanoma
# SK-MEL-28 melanoma = system: SK-MEL-28 melanoma
# SK-MEL-5 melanoma = system: SK-MEL-5 melanoma
# SK-OV-3 ovarian = system: SK-OV-3 ovarian
# SN12C renal = system: SN12C renal
# SNB-19 CNS = system: SNB-19 CNS
# SNB-75 CNS = system: SNB-75 CNS
# SR leukemia = system: SR leukemia
# SW-620 colon = system: SW-620 colon
# T-47D breast = system: T-47D breast
# TK-10 renal = system: TK-10 renal
# U251 CNS = system: U251 CNS
# UACC-62 melanoma = system: UACC-62 melanoma
# UO-31 renal = system: UO-31 renal
smiles,measurement,setting,value
Nc1nonc1C(=Nc1ccc(F)c(Cl)c1)NO,GI50,786-0 renal,63.3 µM
same,TGI,786-0 renal,> 100 µM
same,GI50,A498 renal,21.1 µM
same,TGI,A498 renal,> 86.9 µM
same,GI50,A549 NSCLC,> 66 µM
same,TGI,A549 NSCLC,> 100 µM
same,GI50,ACHN renal,32.7 µM
same,TGI,ACHN renal,> 100 µM
same,GI50,BT-549 breast,29.8 µM
same,TGI,BT-549 breast,> 100 µM
same,GI50,CAKI-1 renal,28.8 µM
same,TGI,CAKI-1 renal,> 100 µM
same,GI50,CCRF-CEM leukemia,98.3 µM
same,TGI,CCRF-CEM leukemia,> 100 µM
same,GI50,COLO 205 colon,60.5 µM
same,TGI,COLO 205 colon,> 100 µM
same,GI50,DU-145 prostate,63.7 µM
same,TGI,DU-145 prostate,> 100 µM
same,GI50,EKVX NSCLC,25.1 µM
same,TGI,EKVX NSCLC,> 100 µM
same,GI50,HCC-2998 colon,> 91.5 µM
same,TGI,HCC-2998 colon,> 100 µM
same,GI50,HCT-116 colon,51.5 µM
same,TGI,HCT-116 colon,> 100 µM
same,GI50,HCT-15 colon,47.3 µM
same,TGI,HCT-15 colon,> 100 µM
same,GI50,HL-60(TB) leukemia,62.8 µM
same,TGI,HL-60(TB) leukemia,> 100 µM
same,GI50,HOP-62 NSCLC,28 µM
same,TGI,HOP-62 NSCLC,> 100 µM
same,GI50,HOP-92 NSCLC,12.6 µM
same,TGI,HOP-92 NSCLC,54.9 µM
same,GI50,HS 578T breast,49.5 µM
same,TGI,HS 578T breast,> 100 µM
same,GI50,HT29 colon,> 100 µM
same,TGI,HT29 colon,> 100 µM
same,GI50,IGROV1 ovarian,28.9 µM
same,TGI,IGROV1 ovarian,> 100 µM
same,GI50,K-562 leukemia,58.8 µM
same,TGI,K-562 leukemia,> 100 µM
same,GI50,KM12 colon,79 µM
same,TGI,KM12 colon,> 100 µM
same,GI50,LOX IMVI melanoma,40 µM
same,TGI,LOX IMVI melanoma,> 100 µM
same,GI50,M14 melanoma,51.9 µM
same,TGI,M14 melanoma,> 100 µM
same,GI50,MALME-3M melanoma,95.2 µM
same,TGI,MALME-3M melanoma,> 100 µM
same,GI50,MCF7 breast,41.6 µM
same,TGI,MCF7 breast,> 100 µM
same,GI50,MDA-MB-231 breast,29.7 µM
same,TGI,MDA-MB-231 breast,> 100 µM
same,GI50,MDA-MB-435,> 88.4 µM
same,TGI,MDA-MB-435,> 100 µM
same,GI50,MOLT-4 leukemia,43.4 µM
same,TGI,MOLT-4 leukemia,> 100 µM
same,GI50,NCI-H226 lung,68 µM
same,TGI,NCI-H226 lung,> 100 µM
same,GI50,NCI-H23 lung,46.6 µM
same,TGI,NCI-H23 lung,> 100 µM
same,GI50,NCI-H460 lung,> 93.2 µM
same,TGI,NCI-H460 lung,> 100 µM
same,GI50,NCI-H522 lung,> 47.1 µM
same,TGI,NCI-H522 lung,> 100 µM
same,GI50,NCI/ADR-RES ovarian,49.2 µM
same,TGI,NCI/ADR-RES ovarian,> 100 µM
same,GI50,OVCAR-3 ovarian,43.1 µM
same,TGI,OVCAR-3 ovarian,> 100 µM
same,GI50,OVCAR-4 ovarian,25.3 µM
same,TGI,OVCAR-4 ovarian,> 100 µM
same,GI50,OVCAR-5 ovarian,53.2 µM
same,TGI,OVCAR-5 ovarian,> 100 µM
same,GI50,OVCAR-8 ovarian,71.1 µM
same,TGI,OVCAR-8 ovarian,> 100 µM
same,GI50,PC-3 prostate,42.4 µM
same,TGI,PC-3 prostate,> 100 µM
same,GI50,RPMI-8226 leukemia,42.3 µM
same,TGI,RPMI-8226 leukemia,> 100 µM
same,GI50,RXF 393 renal,33.6 µM
same,TGI,RXF 393 renal,> 100 µM
same,GI50,SF-268 CNS,39.4 µM
same,TGI,SF-268 CNS,> 100 µM
same,GI50,SF-295 CNS,37.9 µM
same,TGI,SF-295 CNS,> 100 µM
same,GI50,SF-539 CNS,54.2 µM
same,TGI,SF-539 CNS,> 100 µM
same,GI50,SK-MEL-2 melanoma,65 µM
same,TGI,SK-MEL-2 melanoma,> 100 µM
same,GI50,SK-MEL-28 melanoma,> 100 µM
same,TGI,SK-MEL-28 melanoma,> 100 µM
same,GI50,SK-MEL-5 melanoma,41.4 µM
same,TGI,SK-MEL-5 melanoma,> 100 µM
same,GI50,SK-OV-3 ovarian,49.3 µM
same,TGI,SK-OV-3 ovarian,> 100 µM
same,GI50,SN12C renal,45.8 µM
same,TGI,SN12C renal,> 100 µM
same,GI50,SNB-19 CNS,> 94.2 µM
same,TGI,SNB-19 CNS,> 100 µM
same,GI50,SNB-75 CNS,14.2 µM
same,TGI,SNB-75 CNS,76.5 µM
same,GI50,SR leukemia,> 63.2 µM
same,TGI,SR leukemia,> 100 µM
same,GI50,SW-620 colon,> 100 µM
same,TGI,SW-620 colon,> 100 µM
same,GI50,T-47D breast,20.4 µM
same,TGI,T-47D breast,> 100 µM
same,GI50,TK-10 renal,55.9 µM
same,TGI,TK-10 renal,> 100 µM
same,GI50,U251 CNS,> 75.7 µM
same,TGI,U251 CNS,> 100 µM
same,GI50,UACC-62 melanoma,29.8 µM
same,TGI,UACC-62 melanoma,> 100 µM
same,GI50,UO-31 renal,12.6 µM
same,TGI,UO-31 renal,97.5 µM
